Experimental findings from patent US7511077B2, “Diamine calcium channel blockers” (Neuromed Pharmaceuticals Ltd., priority 2005, dated 2009) are described below.

pIC50: −log10 of the molar value. Where two headings read alike, the source gives them in different places.

The target of test [1] is T1, rat brain N-type calcium channel subunits (α1B+α2δ+β1b cDNA subunits) (Rattus norvegicus, UniProt Q02294).
T1 construct: expressed in transfected cells; host or cells: HEK 293
In words: N-type calcium channel block, whole cell patch clamp in HEK 293 cells. In kind it is cell-based. The settings on record: holding potential −80 mV to +10 mV. The method, then:
N-type calcium channel blocking activity was assayed in human embryonic kidney cells, HEK 293, stably transfected with the rat brain N-type calcium channel subunits (α1B+α2δ+β1b cDNA subunits). Alternatively, N-type calcium channels (α1B+α2δ+β1b cDNA subunits), L-type channels (α1C+α2δ+β1b cDNA subunits) and P/Q-type channels (α1A+α2δ+β1b cDNA subunits) were transiently expressed in HEK 293 cells. Briefly, cells were cultured in Dulbecco's modified eagle medium (DMEM) supplemented with 10% fetal bovine serum, 200 U/ml penicillin and 0.2 mg/ml streptomycin at 37° C. with 5% CO2. At 85% confluency cells were split with 0.25% trypsin/1 mM EDTA and plated at 10% confluency on glass coverslips. At 12 hours the medium was replaced and the cells transiently transfected using a standard calcium phosphate protocol and the appropriate calcium channel cDNA's. Fresh DMEM was supplied and the cells transferred to 28° C./5% CO2. Cells were incubated for 1 to 2 days prior to whole cell recording.
Whole cell patch clamp experiments were performed using an Axopatch 200B amplifier (Axon Instruments, Burlingame, Calif.) linked to a personal computer equipped with pCLAMP software. The external and internal recording solutions contained, respectively, 5 mM BaCl2, 10 mM MgCl2, 10 mM HEPES, 40 mM TEACl, 10 mM glucose, 87.5 mM CsCl (pH 7.2) and 108 mM CsMS, 4 mM MgCl2, 9 mM EGTA, 9 mM HEPES (pH 7.2). Currents were typically elicited from a holding potential of −80 mV to +10 mV using Clampex software (Axon Instruments). Typically, currents were first elicited with low frequency stimulation (0.067 Hz) and allowed to stabilize prior to application of the compounds. The compounds were then applied during the low frequency pulse trains for two to three minutes to assess tonic block, and subsequently the pulse frequency was increased to 0.2 Hz to assess frequency dependent block. Data were analyzed using Clampfit (Axon Instruments) and SigmaPlot 4.0 (Jandel Scientific).

Test [2] deals with T2, human α1G T-type channels (Homo sapiens, UniProt O43497).
T2 construct: expressed in transfected cells; host or cells: HEK cell lines
In words: T-type calcium channel block, patch clamp in HEK cell lines. In kind it is cell-based. The method, then: Standard patch-clamp techniques were employed to identify blockers of T-type currents. Briefly, previously described HEK cell lines stably expressing human α1G T-type channels were used for all the recordings (passage #: 4-20, 37° C., 5% CO2). To obtain T-type currents, plastic dishes containing semi-confluent cells were positioned on the stage of a ZEISS AXIOVERT S100 microscope after replacing the culture medium with external solution (see below). Whole-cell patches were obtained using pipettes (borosilicate glass with filament, O.D.: 1.5 mm, I.D.: 0.86 mm, 10 cm length), fabricated on a SUTTER P-97 puller with resistance values of ˜5 MΩ (see below for internal solution).
T-type currents were reliably obtained by using two voltage protocols: • (1) “non-inactivating”, and (2) “inactivation”
In the non-inactivating protocol, the holding potential is set at −110 mV and with a pre-pulse at −100 mV for 1 second prior to the test pulse at −40 mV for 50 ms. In the inactivation protocol, the pre-pulse is at approximately −85 mV for 1 second, which inactivates about 15% of the T-type channels.
Test compounds were dissolved in external solution, 0.1-0.01% DMSO. After ˜10 min rest, they were applied by gravity close to the cell using a WPI microfil tubing. The “non-inactivated” pre-pulse was used to examine the resting block of a compound. The “inactivated” protocol was employed to study voltage-dependent block. However, the initial data shown below were mainly obtained using the non-inactivated protocol only. IC50 values are shown for various compounds of the invention in Table 5.
(In general: The patch-clamp technique gives a direct electrical read-out from membranes.)

Where [3] appears, read: low frequency stimulation 0.067 Hz (tonic block), read-out: IC50 @ 0.067 Hz.
Setting [4] is: pulse frequency 0.2 Hz (frequency dependent block), read-out: IC50 @ 0.2 Hz.
[5] abbreviates: non-inactivating protocol, pre-pulse −100 mV (resting block), read-out: IC50 @ −100 mV.
Setting [6] is: −80 mV (inactivation protocol, voltage-dependent block), read-out: IC50 @ −80 mV.

T2 sequence (O43497 whole entry): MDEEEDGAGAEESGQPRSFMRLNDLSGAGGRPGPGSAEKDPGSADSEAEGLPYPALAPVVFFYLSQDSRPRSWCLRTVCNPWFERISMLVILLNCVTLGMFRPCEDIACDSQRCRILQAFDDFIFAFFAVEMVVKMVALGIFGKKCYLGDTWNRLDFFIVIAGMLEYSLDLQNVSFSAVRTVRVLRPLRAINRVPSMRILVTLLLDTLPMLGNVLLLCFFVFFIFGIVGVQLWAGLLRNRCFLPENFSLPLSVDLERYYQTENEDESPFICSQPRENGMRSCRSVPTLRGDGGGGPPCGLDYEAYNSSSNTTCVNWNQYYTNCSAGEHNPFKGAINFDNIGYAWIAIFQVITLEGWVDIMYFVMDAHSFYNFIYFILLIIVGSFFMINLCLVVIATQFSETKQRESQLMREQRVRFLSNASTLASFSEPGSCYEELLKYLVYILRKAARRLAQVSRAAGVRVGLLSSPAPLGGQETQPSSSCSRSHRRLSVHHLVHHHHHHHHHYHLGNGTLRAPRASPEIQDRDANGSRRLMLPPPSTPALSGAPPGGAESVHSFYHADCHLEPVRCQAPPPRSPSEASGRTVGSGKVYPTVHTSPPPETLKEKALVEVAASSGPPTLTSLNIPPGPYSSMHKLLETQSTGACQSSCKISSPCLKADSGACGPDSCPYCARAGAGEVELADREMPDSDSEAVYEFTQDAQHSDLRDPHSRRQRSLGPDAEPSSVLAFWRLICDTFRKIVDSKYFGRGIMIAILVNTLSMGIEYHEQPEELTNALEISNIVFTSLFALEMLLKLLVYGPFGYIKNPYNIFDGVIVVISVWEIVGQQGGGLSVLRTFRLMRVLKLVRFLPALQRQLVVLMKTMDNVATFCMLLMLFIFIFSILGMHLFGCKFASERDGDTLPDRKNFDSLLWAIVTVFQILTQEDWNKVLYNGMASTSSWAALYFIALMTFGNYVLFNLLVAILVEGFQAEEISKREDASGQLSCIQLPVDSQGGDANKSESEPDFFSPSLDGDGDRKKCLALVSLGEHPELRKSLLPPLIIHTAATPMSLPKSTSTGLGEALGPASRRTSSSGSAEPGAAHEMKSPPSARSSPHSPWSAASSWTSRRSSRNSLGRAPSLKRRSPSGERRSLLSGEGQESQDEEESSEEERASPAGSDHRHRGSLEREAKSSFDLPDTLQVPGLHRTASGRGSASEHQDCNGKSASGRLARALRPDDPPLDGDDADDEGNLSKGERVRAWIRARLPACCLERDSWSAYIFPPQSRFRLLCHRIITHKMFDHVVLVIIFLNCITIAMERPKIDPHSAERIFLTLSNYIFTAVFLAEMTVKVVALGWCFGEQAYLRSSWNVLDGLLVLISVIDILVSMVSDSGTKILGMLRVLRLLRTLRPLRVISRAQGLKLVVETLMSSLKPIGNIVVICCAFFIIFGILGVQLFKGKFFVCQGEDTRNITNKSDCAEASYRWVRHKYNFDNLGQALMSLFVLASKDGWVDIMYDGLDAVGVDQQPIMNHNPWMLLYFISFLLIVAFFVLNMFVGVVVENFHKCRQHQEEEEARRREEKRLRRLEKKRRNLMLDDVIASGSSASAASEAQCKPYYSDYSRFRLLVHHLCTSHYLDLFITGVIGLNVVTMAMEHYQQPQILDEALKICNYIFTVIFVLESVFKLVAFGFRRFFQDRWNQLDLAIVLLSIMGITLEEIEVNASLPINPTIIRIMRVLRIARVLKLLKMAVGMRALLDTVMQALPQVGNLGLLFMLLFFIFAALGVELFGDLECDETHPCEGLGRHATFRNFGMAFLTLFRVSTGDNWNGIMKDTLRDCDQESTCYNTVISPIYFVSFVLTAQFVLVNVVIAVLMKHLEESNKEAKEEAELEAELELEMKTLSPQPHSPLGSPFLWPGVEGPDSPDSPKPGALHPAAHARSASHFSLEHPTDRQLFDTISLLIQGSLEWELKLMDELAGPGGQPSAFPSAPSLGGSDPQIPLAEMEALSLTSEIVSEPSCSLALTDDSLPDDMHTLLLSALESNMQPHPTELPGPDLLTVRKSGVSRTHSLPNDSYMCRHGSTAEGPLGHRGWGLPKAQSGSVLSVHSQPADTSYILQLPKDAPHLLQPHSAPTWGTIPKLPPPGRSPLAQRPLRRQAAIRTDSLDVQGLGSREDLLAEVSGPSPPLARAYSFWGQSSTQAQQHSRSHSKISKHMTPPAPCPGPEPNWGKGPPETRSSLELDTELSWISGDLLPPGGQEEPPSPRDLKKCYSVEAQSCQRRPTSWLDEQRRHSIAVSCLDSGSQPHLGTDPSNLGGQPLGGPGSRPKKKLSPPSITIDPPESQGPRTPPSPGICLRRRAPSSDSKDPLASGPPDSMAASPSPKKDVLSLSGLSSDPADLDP
T1 sequence (Q02294 whole entry): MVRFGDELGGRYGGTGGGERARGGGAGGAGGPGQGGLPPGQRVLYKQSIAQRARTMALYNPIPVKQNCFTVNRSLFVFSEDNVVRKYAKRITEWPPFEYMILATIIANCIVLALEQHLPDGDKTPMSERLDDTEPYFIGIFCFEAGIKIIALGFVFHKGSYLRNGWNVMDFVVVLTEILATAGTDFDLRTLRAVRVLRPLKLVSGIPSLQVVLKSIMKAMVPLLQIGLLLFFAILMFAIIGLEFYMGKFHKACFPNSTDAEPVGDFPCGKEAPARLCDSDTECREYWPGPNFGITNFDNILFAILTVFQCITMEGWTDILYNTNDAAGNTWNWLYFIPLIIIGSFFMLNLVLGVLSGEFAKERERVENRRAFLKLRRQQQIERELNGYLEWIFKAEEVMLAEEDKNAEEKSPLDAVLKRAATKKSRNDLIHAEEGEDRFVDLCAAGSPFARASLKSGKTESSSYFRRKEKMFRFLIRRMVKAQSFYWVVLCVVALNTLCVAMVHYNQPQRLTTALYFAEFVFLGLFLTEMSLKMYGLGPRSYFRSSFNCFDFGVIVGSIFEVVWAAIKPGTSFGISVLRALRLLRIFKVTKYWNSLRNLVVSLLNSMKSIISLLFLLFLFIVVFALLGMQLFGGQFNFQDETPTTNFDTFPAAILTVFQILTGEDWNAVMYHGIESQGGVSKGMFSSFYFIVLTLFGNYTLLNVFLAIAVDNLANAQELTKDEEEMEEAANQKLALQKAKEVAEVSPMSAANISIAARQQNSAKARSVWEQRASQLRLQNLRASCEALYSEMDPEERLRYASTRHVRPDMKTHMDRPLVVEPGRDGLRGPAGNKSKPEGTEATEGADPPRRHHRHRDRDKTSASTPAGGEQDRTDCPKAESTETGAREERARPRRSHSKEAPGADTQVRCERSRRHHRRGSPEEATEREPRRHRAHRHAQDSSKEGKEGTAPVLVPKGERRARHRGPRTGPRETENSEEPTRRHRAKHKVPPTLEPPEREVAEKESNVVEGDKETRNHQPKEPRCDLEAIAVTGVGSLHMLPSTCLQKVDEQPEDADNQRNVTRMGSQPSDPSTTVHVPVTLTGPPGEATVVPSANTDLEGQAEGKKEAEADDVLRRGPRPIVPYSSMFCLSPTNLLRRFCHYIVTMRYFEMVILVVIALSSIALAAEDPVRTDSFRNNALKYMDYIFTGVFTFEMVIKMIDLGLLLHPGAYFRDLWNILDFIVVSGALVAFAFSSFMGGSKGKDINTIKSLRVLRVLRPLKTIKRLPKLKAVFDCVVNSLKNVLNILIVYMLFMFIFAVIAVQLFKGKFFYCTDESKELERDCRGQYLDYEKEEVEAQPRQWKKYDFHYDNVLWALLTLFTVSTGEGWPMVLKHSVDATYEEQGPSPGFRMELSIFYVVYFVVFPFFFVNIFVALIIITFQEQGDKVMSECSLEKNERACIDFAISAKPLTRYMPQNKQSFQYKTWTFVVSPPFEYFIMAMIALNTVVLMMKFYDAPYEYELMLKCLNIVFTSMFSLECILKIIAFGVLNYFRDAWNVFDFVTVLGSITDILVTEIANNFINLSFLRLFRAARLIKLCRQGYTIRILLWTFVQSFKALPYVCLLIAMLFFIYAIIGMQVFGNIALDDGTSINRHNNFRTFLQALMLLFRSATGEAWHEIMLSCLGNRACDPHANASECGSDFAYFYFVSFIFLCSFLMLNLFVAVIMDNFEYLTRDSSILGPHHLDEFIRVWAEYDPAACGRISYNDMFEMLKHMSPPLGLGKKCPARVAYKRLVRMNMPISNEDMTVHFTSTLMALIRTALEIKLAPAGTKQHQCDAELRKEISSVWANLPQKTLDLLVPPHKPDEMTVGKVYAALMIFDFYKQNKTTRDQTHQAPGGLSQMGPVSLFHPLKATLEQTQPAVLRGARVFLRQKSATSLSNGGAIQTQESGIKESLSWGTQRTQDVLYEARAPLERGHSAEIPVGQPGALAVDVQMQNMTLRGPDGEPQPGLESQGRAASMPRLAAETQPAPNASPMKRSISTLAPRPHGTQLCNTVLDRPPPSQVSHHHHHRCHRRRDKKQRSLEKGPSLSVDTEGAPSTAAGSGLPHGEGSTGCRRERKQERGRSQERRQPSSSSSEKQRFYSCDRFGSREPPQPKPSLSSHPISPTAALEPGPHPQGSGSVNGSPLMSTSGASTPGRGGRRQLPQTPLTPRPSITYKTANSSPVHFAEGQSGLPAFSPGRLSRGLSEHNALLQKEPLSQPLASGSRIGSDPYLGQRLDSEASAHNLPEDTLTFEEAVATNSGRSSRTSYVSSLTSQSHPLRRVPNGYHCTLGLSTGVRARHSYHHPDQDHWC

The term pIC50 denotes the IC50 on a negative log10 scale, so that one unit is a factor of ten. For `COc1cc(C(=O)NC/C=C\CNC(=O)CCCCC(c2ccc(F)cc2)c2ccc(F)cc2)cc(OC)c1OC` [Compound P1, N-{(Z)-4-[6,6-Bis-(4-fluoro-phenyl)-hexanoylamino]-but-2-enyl}-3,4,5-trimethoxy-benzamide], the values for the pIC50 in test [1] (setting [3]) and in test [1] (setting [4]) were 6.64 and 6.72, respectively.

On to `COc1c(C(C)(C)C)cc(C(=O)NC/C=C\CNC(=O)CCCCC(c2ccc(F)cc2)c2ccc(F)cc2)cc1C(C)(C)C` [Compound P2, N-{(Z)-4-[6,6-Bis-(4-fluoro-phenyl)-hexanoylamino]-but-2-enyl}-3,5-di-tert-butyl-4-methoxy-benzamide], for which the negative-log IC50 (pIC50) in test [1] (setting [3]) is 6.37; in test [1] (setting [4]), 6.51.

On to `CC(C)(C)c1cc(C(=O)NC/C=C\CNC(=O)CCCCC(c2ccc(F)cc2)c2ccc(F)cc2)cc(C(C)(C)C)c1O` [Compound P3, N-{(Z)-4-[6,6-Bis-(4-fluoro-phenyl)-hexanoylamino]-but-2-enyl}-3,5-di-tert-butyl-4-hydroxy-benzamide], for which the negative-log IC50 (pIC50) in test [1] (setting [3]) is 6.33; in test [1] (setting [4]), 6.57.

In the case of `CC(C)c1ccc(C(=O)NC/C=C\CNC(=O)CCCCC(c2ccc(F)cc2)c2ccc(F)cc2)cc1` [Compound P7, N-{(Z)-4-[6,6-Bis-(4-fluoro-phenyl)-hexanoylamino]-but-2-enyl}-4-isopropyl-benzamide], the pIC50 in test [2] (setting [5]) is 6.71; in test [2] (setting [6]), 7.25; in test [1] (setting [3]), 7.01; in test [1] (setting [4]), 7.27.

With `COc1cc(C(=O)NC/C=C/CNC(=O)CCCCC(c2ccc(F)cc2)c2ccc(F)cc2)cc(OC)c1OC` [Compound P11, N-{(E)-4-[6,6-Bis-(4-fluoro-phenyl)-hexanoylamino]-but-2-enyl}-3,4,5-trimethoxy-benzamide], the pIC50 in test [2] (setting [5]) is 6.81; in test [2] (setting [6]) it was 7.29; in test [1] (setting [3]), 6.48; in test [1] (setting [4]) it was 6.71.

Consider `COc1c(C(C)(C)C)cc(C(=O)NC/C=C/CNC(=O)CCCCC(c2ccc(F)cc2)c2ccc(F)cc2)cc1C(C)(C)C` [Compound P12, N-{(E)-4-[6,6-Bis-(4-fluoro-phenyl)-hexanoylamino]-but-2-enyl}-3,5-di-tert-butyl-4-methoxy-benzamide], for which the pIC50 in test [2] (setting [5]) was 6.95; in test [2] (setting [6]), 7.47; in test [1] (setting [3]), 6.66; in test [1] (setting [4]), 6.84.

On to `CC(C)(C)c1cc(C(=O)NC/C=C/CNC(=O)CCCCC(c2ccc(F)cc2)c2ccc(F)cc2)cc(C(C)(C)C)c1O` [Compound P13, N-{(E)-4-[6,6-Bis-(4-fluoro-phenyl)-hexanoylamino]-but-2-enyl}-3,5-di-tert-butyl-4-hydroxy-benzamide], for which the negative-log IC50 (pIC50) in test [1] (setting [3]) was 6.10; in test [1] (setting [4]), 6.27.

`CC(C)(C)c1ccc(C(=O)NC/C=C/CNC(=O)CCCCC(c2ccc(F)cc2)c2ccc(F)cc2)cc1` [Compound P14, N-{(E)-4-[6,6-Bis-(4-fluoro-phenyl)-hexanoylamino]-but-2-enyl}-4-tert-butyl-benzamide]: the pIC50 in test [1] (setting [3]) was 6.29; in test [1] (setting [4]) it was 6.42.

Turning to `O=C(CCCCC(c1ccc(F)cc1)c1ccc(F)cc1)NC/C=C/CNC(=O)COc1ccc(Cl)cc1` [Compound P16, 6,6-Bis-(4-fluoro-phenyl)-hexanoic acid{(E)-4-[2-(4-chloro-phenoxy)-acetylamino]-but-2-enyl}-amide], the negative logarithm of the IC50 (pIC50) was 7.59 in test [2] (setting [5]), 8.15 in test [2] (setting [6]), 7.28 in test [1] (setting [3]) and 7.82 in test [1] (setting [4]).

On to `CC(C)c1ccc(C(=O)NC/C=C/CNC(=O)CCCCC(c2ccc(F)cc2)c2ccc(F)cc2)cc1` [Compound P17, N-{(E)-4-[6,6-Bis-(4-fluoro-phenyl)-hexanoylamino]-but-2-enyl}-4-isopropyl-benzamide], for which the pIC50 in test [2] (setting [5]) is 8.15; in test [2] (setting [6]), 8.52; in test [1] (setting [3]), 6.22; in test [1] (setting [4]), 6.58.

Take `O=C(CCCCC(c1ccc(F)cc1)c1ccc(F)cc1)NC/C=C/CNC(=O)c1ccc(Cl)cc1` [Compound P18, N-{(E)-4-[6,6-Bis-(4-fluoro-phenyl)-hexanoylamino]-but-2-enyl}-4-chloro-benzamide]: the negative-log IC50 (pIC50) in test [2] (setting [5]) is 6.83; in test [2] (setting [6]), 7.41; in test [1] (setting [3]), 6.09; in test [1] (setting [4]) it was 6.52.

On to `Cc1ccc(C(=O)NC/C=C/CNC(=O)CCCCC(c2ccc(F)cc2)c2ccc(F)cc2)cc1` [Compound P19, N-{(E)-4-[6,6-Bis-(4-fluoro-phenyl)-hexanoylamino]-but-2-enyl}-4-methyl-benzamide], for which the pIC50 in test [2] (setting [5]) is 7.66; in test [2] (setting [6]) it was 8.05; in test [1] (setting [3]), 6.74; in test [1] (setting [4]) it was 6.88.

Regarding `O=C(CCCCC(c1ccc(F)cc1)c1ccc(F)cc1)NC/C=C/CNC(=O)c1ccc(F)cc1` [Compound P20, N-{(E)-4-[6,6-Bis-(4-fluoro-phenyl)-hexanoylamino]-but-2-enyl}-4-fluoro-benzamide], the pIC50 in test [2] (setting [5]) was 6.90; in test [2] (setting [6]), 7.37; in test [1] (setting [3]), 6.73; in test [1] (setting [4]), 6.87.

For `O=C(CC(c1ccccc1)c1ccccc1)NC/C=C/CN(Cc1ccncc1)Cc1ccncc1` [Compound P21, N-[(E)-4-(Bis-pyridin-4-ylmethyl-amino)-but-2-enyl]-3,3-diphenyl-propionamide], the pIC50 in test [2] (setting [5]) is 6.37; in test [2] (setting [6]), 6.79; in test [1] (setting [3]) it was 6.29; in test [1] (setting [4]), 6.56.

As for `COc1cc(C(=O)NCC#CCNC(=O)CCCCC(c2ccc(F)cc2)c2ccc(F)cc2)cc(OC)c1OC` [Compound P22, N-{4-[6,6-Bis-(4-fluoro-phenyl)-hexanoylamino]-but-2-ynyl}-3,4,5-trimethoxy-benzamide], the negative-log IC50 (pIC50) in test [2] (setting [5]) was 6.45; in test [2] (setting [6]) it was 7.11; in test [1] (setting [3]), 6.63; in test [1] (setting [4]), 6.86.

As to `CC(C)c1ccc(C(=O)NCC#CCNC(=O)CCCCC(c2ccc(F)cc2)c2ccc(F)cc2)cc1` [Compound P25, N-{4-[6,6-Bis-(4-fluoro-phenyl)-hexanoylamino]-but-2-ynyl}-4-isopropyl-benzamide], the negative-log IC50 (pIC50) in test [2] (setting [5]) is 6.00; in test [2] (setting [6]), 6.37; in test [1] (setting [3]), 6.11; in test [1] (setting [4]), 6.12.

`O=C(CC(c1ccccc1)c1ccccc1)NCC#CCN(Cc1ccncc1)Cc1ccncc1` [Compound P30, N-[4-(Bis-pyridin-4-ylmethyl-amino)-but-2-ynyl]-3,3-diphenyl-propionamide]: the pIC50 in test [2] (setting [5]) was 7.09; in test [2] (setting [6]), 7.68; in test [1] (setting [3]), 6.47; in test [1] (setting [4]) it was 6.48.

With `O=C(CC(c1ccccc1)c1ccccc1)NCC#CCN(Cc1cccnc1)Cc1cccnc1` [Compound P31, N-[4-(Bis-pyridin-3-ylmethyl-amino)-but-2-ynyl]-3,3-diphenyl-propionamide], the negative-log IC50 (pIC50) in test [2] (setting [5]) was 7.03; in test [2] (setting [6]), 7.57; in test [1] (setting [3]), 6.38; in test [1] (setting [4]) it was 6.38.

Turning to `CC(C)(C)c1ccc(C(=O)NCCCCNC(=O)CCCCC(c2ccc(F)cc2)c2ccc(F)cc2)cc1` [Compound P34, N-{4-[6,6-Bis-(4-fluoro-phenyl)-hexanoylamino]-butyl}-4-tert-butyl-benzamide], the negative logarithm of the IC50 (pIC50) in test [2] (setting [5]) is 6.75; in test [2] (setting [6]) it was 6.85; in test [1] (setting [3]) it was 6.54; in test [1] (setting [4]) it was 6.78.
